Source: ChEMBL document CHEMBL1144019 (Bioorg Med Chem, 2008)
In brackets after ≈: the same amount, converted by molar mass.

Columns and labels:
[1] = test system: Staphylococcus aureus; assay: Antibacterial activity against Staphylococcus aureus Smith by standard serial agar dilution method; type: functional
[2] = test system: Streptococcus pneumoniae; assay: Antibacterial activity against penicillin-resistant Streptococcus pneumoniae SR-16675 by standard serial agar dilution method; type: functional
[3] = test system: Escherichia coli; assay: Antibacterial activity against Escherichia coli SR-21003 by standard serial agar dilution method; type: functional
[4] = test system: Escherichia coli; assay: Antibacterial activity against Toho 2 producing Escherichia coli by standard serial agar dilution method; type: functional
[5] = test system: Enterobacter cloacae; assay: Antibacterial activity against Enterobacter cloacae ATCC 13047 by standard serial agar dilution method; type: functional
[6] = test system: Enterobacter cloacae; assay: Antibacterial activity against AmpC producing Enterobacter cloacae SR-4321 by standard serial agar dilution method; type: functional
[7] = test system: Pseudomonas aeruginosa; assay: Antibacterial activity against Pseudomonas aeruginosa SR24 by standard serial agar dilution method; type: functional
[8] = test system: Pseudomonas aeruginosa; assay: Antibacterial activity against AmpC hyperproducing Pseudomonas aeruginosa SR24-12 by standard serial agar dilution method; type: functional
[9] = test system: Pseudomonas aeruginosa; assay: Antibacterial activity against Pseudomonas aeruginosa SR-5393 by standard serial agar dilution method; type: functional
[10] = test system: Pseudomonas aeruginosa; assay: Antibacterial activity against imipenem-resistant Pseudomonas aeruginosa SR-6554 by standard serial agar dilution method; type: functional
[11] = test system: Haemophilus influenzae; assay: Antibacterial activity against Haemophilus influenzae ATCC 49766 by standard serial agar dilution method; type: functional
[12] = test system: Haemophilus influenzae; assay: Antibacterial activity against beta-lactamase negative ampicillin-resistant Haemophilus influenzae SR-11435 by standard serial agar dilution method; type: functional
[13] = test system: Moraxella catarrhalis; assay: Antibacterial activity against Moraxella catarrhalis ATCC 43617 by standard serial agar dilution method; type: functional
[14] = test system: Pseudomonas aeruginosa; assay: Antibacterial activity against Pseudomonas aeruginosa SR-24722 isolate by standard serial agar dilution method; type: functional
[15] = test system: Pseudomonas aeruginosa; assay: Antibacterial activity against Pseudomonas aeruginosa SR-24736 isolate by standard serial agar dilution method; type: functional
[16] = test system: Pseudomonas aeruginosa; assay: Antibacterial activity against Pseudomonas aeruginosa SR-24765 isolate by standard serial agar dilution method; type: functional
[17] = test system: Pseudomonas aeruginosa; assay: Antibacterial activity against Pseudomonas aeruginosa SR-24770 isolate by standard serial agar dilution method; type: functional
[18] = test system: Pseudomonas aeruginosa; assay: Antibacterial activity against Pseudomonas aeruginosa SR-24797 isolate by standard serial agar dilution method; type: functional
[19] = test system: Pseudomonas aeruginosa; assay: Antibacterial activity against Pseudomonas aeruginosa SR-24816 isolate by standard serial agar dilution method; type: functional
[20] = test system: Pseudomonas aeruginosa; assay: Antibacterial activity in CAZ-susceptible Pseudomonas aeruginosa SR24 infected ICR mouse after 7 days; type: functional; settings: 168 h
[21] = test system: Pseudomonas aeruginosa; assay: Antibacterial activity in CAZ-resistant Pseudomonas aeruginosa SR24-12 infected ICR mouse after 7 days; type: functional; settings: 168 h
[22] = Stability in presence of AmpC beta-lactamase; type: ADME

SMILES | MIC [1] [µg/mL] | MIC [2] [µg/mL] | MIC [3] [µg/mL] | MIC [4] [µg/mL] | MIC [5] [µg/mL] | MIC [6] [µg/mL] | MIC [7] [µg/mL] | MIC [8] [µg/mL] | MIC [9] [µg/mL] | MIC [10] [µg/mL] | MIC [11] [µg/mL] | MIC [12] [µg/mL] | MIC [13] [µg/mL] | MIC [14] [µg/mL] | MIC [15] [µg/mL] | MIC [16] [µg/mL] | MIC [17] [µg/mL] | MIC [18] [µg/mL] | MIC [19] [µg/mL] | Stability [22] [%] | also measured
CNCCCn1c(N)nc2c1ccc[n+]2CC1=C(C(=O)[O-])N2C(=O)[C@@H](NC(=O)/C(=N\O[C@@H](C)C(=O)O)c3nc(N)sc3Cl)[C@H]2SC1 | 2 (≈ 2.89 µM) | 2 (≈ 2.89 µM) | 0.25 (≈ 0.361 µM) | 2 (≈ 2.89 µM) | 0.5 (≈ 0.721 µM) | 2 (≈ 2.89 µM) | 0.5 (≈ 0.721 µM) | 4 (≈ 5.77 µM) | 2 (≈ 2.89 µM) | 8 (≈ 11.5 µM) | 0.032 (≈ 0.0462 µM) | 0.063 (≈ 0.0909 µM) | 0.016 (≈ 0.0231 µM) | 4 (≈ 5.77 µM) | 2 (≈ 2.89 µM) | 4 (≈ 5.77 µM) | 4 (≈ 5.77 µM) | 4 (≈ 5.77 µM) | 2 (≈ 2.89 µM) | 90.2 | ED50 [20]: 1.33 mg/kg; ED50 [21]: 4.69 mg/kg
CNCCCn1ccc2c1ccc[n+]2CC1=C(C(=O)[O-])N2C(=O)[C@@H](NC(=O)/C(=N\O[C@@H](C)C(=O)O)c3nc(N)sc3Cl)[C@H]2SC1 | 2 (≈ 2.95 µM) | 4 (≈ 5.91 µM) | 0.5 (≈ 0.738 µM) | 2 (≈ 2.95 µM) | 0.5 (≈ 0.738 µM) | 2 (≈ 2.95 µM) | 1 (≈ 1.48 µM) | 4 (≈ 5.91 µM) | 2 (≈ 2.95 µM) | 8 (≈ 11.8 µM) | 0.032 (≈ 0.0473 µM) | 0.063 (≈ 0.093 µM) | 0.016 (≈ 0.0236 µM) | 8 (≈ 11.8 µM) | 8 (≈ 11.8 µM) | 8 (≈ 11.8 µM) | 8 (≈ 11.8 µM) | 8 (≈ 11.8 µM) | 4 (≈ 5.91 µM) | 78.4 | –
CO/N=C(\C(=O)N[C@@H]1C(=O)N2C(C(=O)[O-])=C(C[N+]3(C)CCCC3)CS[C@H]12)c1csc(N)n1 | 2 (≈ 4.16 µM) | 2 (≈ 4.16 µM) | 0.063 (≈ 0.131 µM) | 4 (≈ 8.32 µM) | – | – | 0.5 (≈ 1.04 µM) | 32 (≈ 66.6 µM) | 4 (≈ 8.32 µM) | 64 (≈ 133 µM) | 0.032 (≈ 0.0666 µM) | 0.5 (≈ 1.04 µM) | 0.5 (≈ 1.04 µM) | – | – | – | – | – | – | 12.9 | –
CNCCNc1cc[n+](CC2=C(C(=O)[O-])N3C(=O)[C@@H](NC(=O)/C(=N\O[C@@H](C)C(=O)O)c4nc(N)sc4Cl)[C@H]3SC2)cc1 | 4 (≈ 6.26 µM) | 4 (≈ 6.26 µM) | 0.5 (≈ 0.782 µM) | 4 (≈ 6.26 µM) | 0.5 (≈ 0.782 µM) | 4 (≈ 6.26 µM) | 0.5 (≈ 0.782 µM) | 4 (≈ 6.26 µM) | 2 (≈ 3.13 µM) | 16 (≈ 25 µM) | 0.125 (≈ 0.196 µM) | 0.25 (≈ 0.391 µM) | 0.032 (≈ 0.0501 µM) | – | – | – | – | – | – | 80.3 | –
CC(C)(O/N=C(\C(=O)N[C@@H]1C(=O)N2C(C(=O)[O-])=C(C[n+]3ccccc3)CS[C@H]12)c1csc(N)n1)C(=O)O [CEFTAZIDIME] | 8 (≈ 14.6 µM) | 8 (≈ 14.6 µM) | 0.25 (≈ 0.457 µM) | 1 (≈ 1.83 µM) | 8 (≈ 14.6 µM) | 64 (≈ 117 µM) | 0.5 (≈ 0.915 µM) | 64 (≈ 117 µM) | 2 (≈ 3.66 µM) | 32 (≈ 58.5 µM) | 0.063 (≈ 0.115 µM) | 0.125 (≈ 0.229 µM) | 0.063 (≈ 0.115 µM) | 64 (≈ 117 µM) | 128 (≈ 234 µM) | 128 (≈ 234 µM) | 64 (≈ 117 µM) | 64 (≈ 117 µM) | 64 (≈ 117 µM) | 18 | ED50 [20]: 2.83 mg/kg; ED50 [21]: > 128 mg/kg
C[C@H](O/N=C(\C(=O)N[C@@H]1C(=O)N2C(C(=O)[O-])=C(C[n+]3cccc4c3ccn4CC(N)=O)CS[C@H]12)c1nc(N)sc1Cl)C(=O)O | 2 (≈ 3.02 µM) | 2 (≈ 3.02 µM) | 0.25 (≈ 0.377 µM) | 2 (≈ 3.02 µM) | 0.5 (≈ 0.754 µM) | 4 (≈ 6.03 µM) | 1 (≈ 1.51 µM) | 4 (≈ 6.03 µM) | 4 (≈ 6.03 µM) | 16 (≈ 24.1 µM) | 0.032 (≈ 0.0483 µM) | 0.063 (≈ 0.095 µM) | 0.016 (≈ 0.0241 µM) | – | – | – | – | – | – | – | –
C[C@H](O/N=C(\C(=O)N[C@@H]1C(=O)N2C(C(=O)[O-])=C(C[n+]3cccc4c3nc(N)n4CCNCCO)CS[C@H]12)c1nc(N)sc1Cl)C(=O)O | 4 (≈ 5.64 µM) | 2 (≈ 2.82 µM) | 0.5 (≈ 0.705 µM) | 4 (≈ 5.64 µM) | 0.5 (≈ 0.705 µM) | 2 (≈ 2.82 µM) | 1 (≈ 1.41 µM) | 4 (≈ 5.64 µM) | 4 (≈ 5.64 µM) | 16 (≈ 22.6 µM) | 0.032 (≈ 0.0451 µM) | 0.063 (≈ 0.0888 µM) | 0.016 (≈ 0.0226 µM) | – | – | – | – | – | – | – | –
